Source: patent US7186722B2, “2-heteroaryl-3,4-dihydro-2h-pyrrole derivatives and the use thereof as pesticides” (Bayer Cropscience AG, priority 2001, dated 2007)
Where two headings read alike, the source gives them in different places.

What was measured:
[1] = logP determination by HPLC (reversed-phase C 18), EEC Directive 79/831 Annex V.A8; format: physicochemical
Procedure: The stated logP values were determined in accordance with EEC Directive 79/831 Annex V.A8 by HPLC (High Performance Liquid Chromatography), using a reversed-phase column (C 18). Temperature: 43° C.
In the acidic range, the determination was carried out at pH 2.3 using the mobile phases 0.1% aqueous phosphoric acid and acetonitrile; linear gradient from 10% acetonitrile to 90% acetonitrile.
In the neutral range, the determination was carried out at pH 7.5 using the mobile phases 0.01 molar aqueous phosphate buffer solution and acetonitrile; linear gradient from 10% acetonitrile to 90% acetonitrile.
Calibration was carried out using unbranched alkan-2-ones (having 3 to 16 carbon atoms) with known logP values (determination of the logP values by the retention times using linear interpolation between two successive alkanones).

Meloidogyne incognita = assay: Meloidogyne Test; format: in vivo; settings: 20 ppm, nematicidal action by formation of galls on lettuce roots
Procedure: • Solvent: 30 parts by weight of dimethylformamide • Emulsifier: 1 part by weight of alkylaryl polyglycol ether
To produce a suitable preparation of active compound, 1 part by weight of active compound is mixed with the stated amount of solvent and emulsifier, and the concentrated is diluted with water to the desired concentration.
Vessels are filled with sand, solution of active compound, Meloidogyne incognita egg/larvae suspension and lettuce seeds. The lettuce seeds germinate and the plants develop. On the roots galls are formed.
After the desired period of time, the nematicidal action is determined in % by the formation of galls. 100% means that no galls have been found; 0% means that the number of galls on the treated plants corresponds to that of the untreated control.

[2] = tested on: larvae of the mustard beetle (Phaedon cochleariae); assay: Phaedon Larvae Test; format: in vivo; settings: 1000 ppm, cabbage leaves dipped
Procedure: Phaedon Larvae Test • Solvent: 30 parts by weight of dimethylformamide • Emulsifier: 1 part by weight of alkylaryl polyglycol ether To produce a suitable preparation of active compound, 1 part by weight of active compound is mixed with the stated amount of solvent and emulsifier, and the concentrate is diluted with emulsifier-containing water to the desired concentration. Cabbage leaves (Brassica oleracea) are treated by being dipped into the preparation of active compound of the desired concentration and are populated with larvae of the mustard beetle (Phaedon cochleariae) while the leaves are still moist.

[3] = tested on: caterpillars of the army worm (Spodoptera frugiperda); assay: Spodoptera frugiperda Test; format: in vivo; settings: cabbage leaves dipped
Procedure: Spodoptera frugiperda Test
• Solvent: 30 parts by weight of dimethylformamide. • Emulsifier: 1 part by weight of alkylaryl polyglycol ether
To produce a suitable preparation of active compound, 1 part by weight of active compound is mixed with the stated amount of solvent and emulsifier, and the concentrate is diluted with emulsifier-containing water to the desired concentration.
Cabbage leaves (Brassica oleracea) are treated by being dipped into the preparation of active compound of the desired concentration and are populated with caterpillars of the army worm (Spodoptera frugiperda) while the leaves are still moist.
After the desired period of time, the kill in % is determined. 100% means that all caterpillars have been killed; 0% means that none of the caterpillars have been killed.

[4] = reversed-phase C18 HPLC column, pH 2.3, HPLC, 0.1% aqueous phosphoric acid/acetonitrile, 43° C., read-out: log P (pH 2.3)
[5] = pH 2.3, HPLC, 0.1% aqueous phosphoric acid/acetonitrile, 43° C., read-out: log P (pH 2.3)

For `Fc1cccc(F)c1C1=NC(c2ccc(Br)s2)CC1` (stereo not drawn) [Example 1, 2-(5-bromo-2-thienyl)-5-(2,6-difluorophenyl)-3,4-dihydro-2H-pyrrole], the chromatographic logP [1, 4] was 3.45.
With `Fc1cccc(F)c1C1=NC(c2cccs2)CC1` (stereo not drawn) [Example 2] the chromatographic logP [1, 4] was 1.95.
For `Fc1cccc(F)c1C1=NC(c2sccc2Cl)CC1` (stereo not drawn) [Example 3], the chromatographic logP [1, 4] was 3.34.
With `Cc1ccsc1C1CCC(c2c(F)cccc2F)=N1` (stereo not drawn) [Example 4] the chromatographic logP [1, 4] was 2.34.
`Fc1cccc(F)c1C1=NC(c2cc3ccccc3s2)CC1` (stereo not drawn) [Example 5] gave a chromatographic logP [1, 4] of 3.11.
Work on `Fc1cccc(F)c1C1=NC(c2cc(Br)cs2)CC1` (stereo not drawn) [Example 8, 2-(4-bromo-2-thienyl)-5-(2,6-difluorophenyl)-3,4-dihydro-2H-pyrrole] yielded a chromatographic logP [1, 4] of 3.41.
In the case of `Fc1cccc(F)c1C1=NC(c2ccc(Cl)nc2)CC1` (stereo not drawn) [Example 9, 2-(6-chloro-3-pyridinyl)-5-(2,6-difluorophenyl)-3,4-dihydro-2H-pyrrole], the chromatographic logP ([1]; pH 2.3) is reported as 1.93.
`Fc1cccc(F)c1C1=NC(c2ccc(-c3ccc(OC(F)(F)F)cc3)nc2)CC1` (stereo not drawn) [Example 10, 5-[5-(2,6-difluorophenyl)-3,4-dihydro-2H-pyrrol-2-yl]-2-[4-(trifluoromethoxy)phenyl]pyridine] gave a chromatographic logP [1, 4] of 3.5.
For `Fc1cccc(F)c1C1=NC(c2ccc(-c3ccc(OC(F)(F)F)cc3)s2)CC1` (stereo not drawn) [Example 11, 5-(2,6-difluorophenyl)-2-{5-[4-(trifluoromethoxy)phenyl]-2-thienyl}-3,4-dihydro-2H-pyrrole], the chromatographic logP [1, 4] was 5.16.
`Fc1cccc(F)c1C1=NC(c2ccc(-c3cccc(OC(F)(F)F)c3)s2)CC1` (stereo not drawn) [Example 12, 5-(2,6-difluorophenyl)-2-{5-[3-(trifluoromethoxy)phenyl]-2-thienyl}-3,4-dihydro-2H-pyrrole] gave a chromatographic logP [1, 4] of 4.84.
With `Fc1cccc(F)c1C1=NC(c2cc(-c3cccc(OC(F)(F)F)c3)cs2)CC1` (stereo not drawn) [Example 13, 5-(2.6-difluorophenyl)-2-{4-[3-(trifluoromethoxy)phenyl]-2-thienyl}-3,4-dihydro-2H-pyrrole] the chromatographic logP [1, 4] was 4.08.
For `Fc1cccc(F)c1C1=NC(c2cc(-c3ccc(OC(F)(F)F)cc3)cs2)CC1` (stereo not drawn) [Example 14, 5-(2,6-difluorophenyl)-2-{4-[4-(trifluoromethoxy)phenyl]-2-thienyl}-3,4-dihydro-2H-pyrrole], the chromatographic logP [1, 4] was 4.66.
Work on `CC(C)(C)OC(=O)NC(CCC(=O)c1c(F)cccc1F)c1ccc(Br)s1` (stereo not drawn) [II-1, tert-butyl 1-(5-bromo-2-thienyl)-4-(2,6-difluorophenyl)-4-oxobutylcarbamate] yielded a chromatographic logP [1, 4] of 4.29.
`CC(C)(C)OC(=O)NC(CCC(=O)c1c(F)cccc1F)c1cccs1` (stereo not drawn) [II-2] showed a chromatographic logP [1, 5] of 4.48.
`CC(C)(C)OC(=O)NC(CCC(=O)c1c(F)cccc1F)c1sccc1Cl` (stereo not drawn) [II-3] gave a chromatographic logP [1, 5] of 4.28.
Molecule `Cc1ccsc1C(CCC(=O)c1c(F)cccc1F)NC(=O)OC(C)(C)C` (stereo not drawn) [II-4] has a chromatographic logP [1, 4] of 4.27.
Molecule `CC(C)(C)OC(=O)NC(CCC(=O)c1c(F)cccc1F)c1cc2ccccc2s1` (stereo not drawn) [II-5] has a chromatographic logP [1, 4] of 4.2.
`[N-]=[N+]=NC(CCC(=O)c1c(F)cccc1F)c1cc(Br)cs1` (stereo not drawn) [III-1, 4-azido-4-(4-bromo-2-thienyl)-1-(2,6-difluorophenyl)-1-butanone] showed a chromatographic logP [1, 4] of 3.
With `[N-]=[N+]=NC(CCC(=O)c1c(F)cccc1F)c1ccc(Cl)nc1` (stereo not drawn) [III-2, 4-azido-4-(6-chloro-3-pyridinyl)-1-(2,6-difluorophenyl)-1-butanone] the chromatographic logP [1, 4] was 3.33.
With `[N-]=[N+]=NC(CCC(=O)c1c(F)cccc1F)c1ccc(-c2ccc(OC(F)(F)F)cc2)nc1` (stereo not drawn) [III-3, 4-azido-1-(2,6-difluorophenyl)-4-{6-[4-(trifluoromethoxy)phenyl]-3-pyridinyl}-1-butanone] the chromatographic logP [1, 4] was 4.78.
`CC(C)(C)OC(=O)N1C(=O)CCC1c1ccc(Br)s1` (stereo not drawn) [IX-1, tert-butyl 2-(5-bromo-2-thienyl)-5-oxo-1-pyrrolidinecarboxylate] gave a chromatographic logP [1, 4] of 3.03.
Molecule `CC(C)(C)OC(=O)N1C(=O)CCC1c1cccs1` (stereo not drawn) [IX-2] has a chromatographic logP [1, 4] of 2.39.
`CC(C)(C)OC(=O)N1C(=O)CCC1c1sccc1Cl` (stereo not drawn) [IX-3] showed a chromatographic logP ([1]; reversed-phase C18 HPLC column, pH 7.5, HPLC, 0.01 molar aqueous phosphate buffer/acetonitrile, 43° C., read-out: log P (pH 7.5)) of 2.77.
For `Cc1ccsc1C1CCC(=O)N1C(=O)OC(C)(C)C` (stereo not drawn) [IX-4], the chromatographic logP [1, 4] was 2.65.
Molecule `CC(C)(C)OC(=O)N1C(=O)CCC1c1cc2ccccc2s1` (stereo not drawn) [IX-5] has a chromatographic logP [1, 4] of 3.03.
With `O=C1CCC(c2ccc(Br)s2)N1` (stereo not drawn) [XI-1, 5-(5-bromo-2-thienyl)-2-pyrrolidinone] the chromatographic logP [1, 4] was 1.62.
For `O=C1CCC(c2cccs2)N1` (stereo not drawn) [XI-2], the chromatographic logP [1, 4] was 1.03.
With `O=C1CCC(c2sccc2Cl)N1` (stereo not drawn) [XI-3] the chromatographic logP [1, 4] was 1.41.
For `Cc1ccsc1C1CCC(=O)N1` (stereo not drawn) [XI-4], the chromatographic logP [1, 4] was 1.33.
In the case of `O=C1CCC(c2cc3ccccc3s2)N1` (stereo not drawn) [XI-5], the chromatographic logP [1, 4] is reported as 1.73.
`O=C(CCC(Cl)c1cc(Br)cs1)c1c(F)cccc1F` (stereo not drawn) [XV-1, 4-(4-bromo-2-thienyl)4-chloro-1-(2,6-difluorophenyl)-1-butanone] gave a chromatographic logP [1, 4] of 3.
`O=C(CCC(Cl)c1ccc(Cl)nc1)c1c(F)cccc1F` (stereo not drawn) [XV-2, 4-(6-chloro-3-pyridinyl)-4-chloro-1-(2,6-difluorophenyl)-1-butanone] gave a chromatographic logP [1, 4] of 3.37.
`O=C(CCC(Cl)c1ccc(-c2ccc(OC(F)(F)F)cc2)nc1)c1c(F)cccc1F` (stereo not drawn) [XV-3, 4-chloro-1-(2,6-difluorophenyl)4-{6-[4-(trifluoromethoxy)phenyl]-3-pyridinyl}-1-butanone] gave a chromatographic logP [1, 4] of 4.88.
Molecule `O=C(c1c(F)cccc1F)C1CC1c1cc(Br)cs1` (stereo not drawn) [XVII-1, [2-(4-bromo-2-thienyl)cyclopropyl](2,6-difluorophenyl)methanone] has a chromatographic logP [1, 4] of 4.14.
In the case of `O=C(c1c(F)cccc1F)C1CC1c1ccc(Cl)nc1` (stereo not drawn) [XVII-2, [2-(6-chloro-3-pyridinyl)cyclopropyl](2,6-difluorophenyl)methanone], the chromatographic logP [1, 4] is reported as 2.92.
For `O=C(c1c(F)cccc1F)C1CC1c1ccc(-c2ccc(OC(F)(F)F)cc2)nc1` (stereo not drawn) [XVII-3, (2,6-difluorophenyl)(2-{6-[4-(trifluoromethoxy)phenyl]-3-pyridinyl}cyclopropyl)methanone], the chromatographic logP [1, 4] was 4.4.
For `O=C(/C=C/c1cc(Br)cs1)c1c(F)cccc1F` [XVIII-1, 3-(4-bromo-2-thienyl)-1-(2,6-difluorophenyl)-2-propen-1-one], the chromatographic logP [1, 4] was 3.78.
`O=C(/C=C/c1ccc(Cl)nc1)c1c(F)cccc1F` [XVIII-2, 3-(6-chloro-3-pyridinyl)-1-(2,6-difluorophenyl)-2-propen-1-one] gave a chromatographic logP [1, 4] of 2.87.
With `Fc1cccc(F)c1C1=NC(c2ccc(-c3cccc(OC(F)(F)F)c3)s2)CC1` (stereo not drawn) [drawing 85] the “Kill rate in % after 14 d” value (Meloidogyne incognita) was 98%.
For `Cc1ccsc1C1CCC(c2c(F)cccc2F)=N1` (stereo not drawn) [drawing 87], the “Kill rate in % after 7 d” value [2] was 100%.
For `Fc1cccc(F)c1C1=NC(c2ccc(-c3cccc(OC(F)(F)F)c3)s2)CC1` (stereo not drawn) [drawing 88], the “Kill rate in % after 7 d” value [2] was 100%.
With `Fc1cccc(F)c1C1=NC(c2cc(-c3ccc(OC(F)(F)F)cc3)cs2)CC1` (stereo not drawn) [drawing 89] the “Kill rate in % after 7 d” value [2] was 100%.
For `Fc1cccc(F)c1C1=NC(c2cc3sc(-c4ccc(OC(F)(F)F)cc4)cc3s2)CC1` (stereo not drawn) [drawing 91], the “Kill rate in % after 7 d” value ([3]; 500 ppm) was 100%.
With `Fc1cccc(F)c1C1=NC(c2ccc(-c3cccc(OC(F)(F)F)c3)s2)CC1` (stereo not drawn) [drawing 92] the “Kill rate in % after 7 d” value ([3]; 1000 ppm) was 100%.
In the case of `Fc1cccc(F)c1C1=NC(c2cc(Br)cs2)CC1` (stereo not drawn) [drawing 93], the “Kill rate in % after 7 d” value ([3]; 1000 ppm) is reported as 100%.
For `Fc1cccc(F)c1C1=NC(c2cc(-c3cccc(OC(F)(F)F)c3)cs2)CC1` (stereo not drawn) [drawing 94], the “Kill rate in % after 7 d” value ([3]; 1000 ppm) was 100%.
In the case of `Fc1cccc(F)c1C1=NC(c2cc(-c3ccc(OC(F)(F)F)cc3)cs2)CC1` (stereo not drawn) [drawing 95], the “Kill rate in % after 7 d” value ([3]; 1000 ppm) is reported as 100%.
For `Fc1cccc(F)c1C1=NC(c2ccc(Cl)nc2)CC1` (stereo not drawn) [drawing 96], the “Kill rate in % after 7 d” value ([3]; 500 ppm) was 100%.
